Assay results published in US20240174718A1, “RYANODINE RECEPTOR INHIBITOR COMPOUNDS AND METHODS RELATING THERETO” (Vanderbilt University, priority 2022, published 2024).
Where two headings read alike, the source gives them in different places.

What was measured:
[1] = test system: mammalian cardiac ryanodine receptor (RyR2); conditions: cited from earlier work
RyR2 [2] = target: T1, RyR2 (Mus musculus, UniProt E9Q401); assay: Calcium spark frequency in permeabilized Casq2 knockout cardiomyocytes (screen for RyR2 activity); assay type: cell-based
T1 construct: spontaneous openings of intracellular RyR2 Ca^2+ release channels; endogenous in cells; host or cells: ventricular cardiomyocytes isolated from Casq2-/- mice (saponin-permeabilized in A1, intact in A7)
T1 sequence (E9Q401 whole entry): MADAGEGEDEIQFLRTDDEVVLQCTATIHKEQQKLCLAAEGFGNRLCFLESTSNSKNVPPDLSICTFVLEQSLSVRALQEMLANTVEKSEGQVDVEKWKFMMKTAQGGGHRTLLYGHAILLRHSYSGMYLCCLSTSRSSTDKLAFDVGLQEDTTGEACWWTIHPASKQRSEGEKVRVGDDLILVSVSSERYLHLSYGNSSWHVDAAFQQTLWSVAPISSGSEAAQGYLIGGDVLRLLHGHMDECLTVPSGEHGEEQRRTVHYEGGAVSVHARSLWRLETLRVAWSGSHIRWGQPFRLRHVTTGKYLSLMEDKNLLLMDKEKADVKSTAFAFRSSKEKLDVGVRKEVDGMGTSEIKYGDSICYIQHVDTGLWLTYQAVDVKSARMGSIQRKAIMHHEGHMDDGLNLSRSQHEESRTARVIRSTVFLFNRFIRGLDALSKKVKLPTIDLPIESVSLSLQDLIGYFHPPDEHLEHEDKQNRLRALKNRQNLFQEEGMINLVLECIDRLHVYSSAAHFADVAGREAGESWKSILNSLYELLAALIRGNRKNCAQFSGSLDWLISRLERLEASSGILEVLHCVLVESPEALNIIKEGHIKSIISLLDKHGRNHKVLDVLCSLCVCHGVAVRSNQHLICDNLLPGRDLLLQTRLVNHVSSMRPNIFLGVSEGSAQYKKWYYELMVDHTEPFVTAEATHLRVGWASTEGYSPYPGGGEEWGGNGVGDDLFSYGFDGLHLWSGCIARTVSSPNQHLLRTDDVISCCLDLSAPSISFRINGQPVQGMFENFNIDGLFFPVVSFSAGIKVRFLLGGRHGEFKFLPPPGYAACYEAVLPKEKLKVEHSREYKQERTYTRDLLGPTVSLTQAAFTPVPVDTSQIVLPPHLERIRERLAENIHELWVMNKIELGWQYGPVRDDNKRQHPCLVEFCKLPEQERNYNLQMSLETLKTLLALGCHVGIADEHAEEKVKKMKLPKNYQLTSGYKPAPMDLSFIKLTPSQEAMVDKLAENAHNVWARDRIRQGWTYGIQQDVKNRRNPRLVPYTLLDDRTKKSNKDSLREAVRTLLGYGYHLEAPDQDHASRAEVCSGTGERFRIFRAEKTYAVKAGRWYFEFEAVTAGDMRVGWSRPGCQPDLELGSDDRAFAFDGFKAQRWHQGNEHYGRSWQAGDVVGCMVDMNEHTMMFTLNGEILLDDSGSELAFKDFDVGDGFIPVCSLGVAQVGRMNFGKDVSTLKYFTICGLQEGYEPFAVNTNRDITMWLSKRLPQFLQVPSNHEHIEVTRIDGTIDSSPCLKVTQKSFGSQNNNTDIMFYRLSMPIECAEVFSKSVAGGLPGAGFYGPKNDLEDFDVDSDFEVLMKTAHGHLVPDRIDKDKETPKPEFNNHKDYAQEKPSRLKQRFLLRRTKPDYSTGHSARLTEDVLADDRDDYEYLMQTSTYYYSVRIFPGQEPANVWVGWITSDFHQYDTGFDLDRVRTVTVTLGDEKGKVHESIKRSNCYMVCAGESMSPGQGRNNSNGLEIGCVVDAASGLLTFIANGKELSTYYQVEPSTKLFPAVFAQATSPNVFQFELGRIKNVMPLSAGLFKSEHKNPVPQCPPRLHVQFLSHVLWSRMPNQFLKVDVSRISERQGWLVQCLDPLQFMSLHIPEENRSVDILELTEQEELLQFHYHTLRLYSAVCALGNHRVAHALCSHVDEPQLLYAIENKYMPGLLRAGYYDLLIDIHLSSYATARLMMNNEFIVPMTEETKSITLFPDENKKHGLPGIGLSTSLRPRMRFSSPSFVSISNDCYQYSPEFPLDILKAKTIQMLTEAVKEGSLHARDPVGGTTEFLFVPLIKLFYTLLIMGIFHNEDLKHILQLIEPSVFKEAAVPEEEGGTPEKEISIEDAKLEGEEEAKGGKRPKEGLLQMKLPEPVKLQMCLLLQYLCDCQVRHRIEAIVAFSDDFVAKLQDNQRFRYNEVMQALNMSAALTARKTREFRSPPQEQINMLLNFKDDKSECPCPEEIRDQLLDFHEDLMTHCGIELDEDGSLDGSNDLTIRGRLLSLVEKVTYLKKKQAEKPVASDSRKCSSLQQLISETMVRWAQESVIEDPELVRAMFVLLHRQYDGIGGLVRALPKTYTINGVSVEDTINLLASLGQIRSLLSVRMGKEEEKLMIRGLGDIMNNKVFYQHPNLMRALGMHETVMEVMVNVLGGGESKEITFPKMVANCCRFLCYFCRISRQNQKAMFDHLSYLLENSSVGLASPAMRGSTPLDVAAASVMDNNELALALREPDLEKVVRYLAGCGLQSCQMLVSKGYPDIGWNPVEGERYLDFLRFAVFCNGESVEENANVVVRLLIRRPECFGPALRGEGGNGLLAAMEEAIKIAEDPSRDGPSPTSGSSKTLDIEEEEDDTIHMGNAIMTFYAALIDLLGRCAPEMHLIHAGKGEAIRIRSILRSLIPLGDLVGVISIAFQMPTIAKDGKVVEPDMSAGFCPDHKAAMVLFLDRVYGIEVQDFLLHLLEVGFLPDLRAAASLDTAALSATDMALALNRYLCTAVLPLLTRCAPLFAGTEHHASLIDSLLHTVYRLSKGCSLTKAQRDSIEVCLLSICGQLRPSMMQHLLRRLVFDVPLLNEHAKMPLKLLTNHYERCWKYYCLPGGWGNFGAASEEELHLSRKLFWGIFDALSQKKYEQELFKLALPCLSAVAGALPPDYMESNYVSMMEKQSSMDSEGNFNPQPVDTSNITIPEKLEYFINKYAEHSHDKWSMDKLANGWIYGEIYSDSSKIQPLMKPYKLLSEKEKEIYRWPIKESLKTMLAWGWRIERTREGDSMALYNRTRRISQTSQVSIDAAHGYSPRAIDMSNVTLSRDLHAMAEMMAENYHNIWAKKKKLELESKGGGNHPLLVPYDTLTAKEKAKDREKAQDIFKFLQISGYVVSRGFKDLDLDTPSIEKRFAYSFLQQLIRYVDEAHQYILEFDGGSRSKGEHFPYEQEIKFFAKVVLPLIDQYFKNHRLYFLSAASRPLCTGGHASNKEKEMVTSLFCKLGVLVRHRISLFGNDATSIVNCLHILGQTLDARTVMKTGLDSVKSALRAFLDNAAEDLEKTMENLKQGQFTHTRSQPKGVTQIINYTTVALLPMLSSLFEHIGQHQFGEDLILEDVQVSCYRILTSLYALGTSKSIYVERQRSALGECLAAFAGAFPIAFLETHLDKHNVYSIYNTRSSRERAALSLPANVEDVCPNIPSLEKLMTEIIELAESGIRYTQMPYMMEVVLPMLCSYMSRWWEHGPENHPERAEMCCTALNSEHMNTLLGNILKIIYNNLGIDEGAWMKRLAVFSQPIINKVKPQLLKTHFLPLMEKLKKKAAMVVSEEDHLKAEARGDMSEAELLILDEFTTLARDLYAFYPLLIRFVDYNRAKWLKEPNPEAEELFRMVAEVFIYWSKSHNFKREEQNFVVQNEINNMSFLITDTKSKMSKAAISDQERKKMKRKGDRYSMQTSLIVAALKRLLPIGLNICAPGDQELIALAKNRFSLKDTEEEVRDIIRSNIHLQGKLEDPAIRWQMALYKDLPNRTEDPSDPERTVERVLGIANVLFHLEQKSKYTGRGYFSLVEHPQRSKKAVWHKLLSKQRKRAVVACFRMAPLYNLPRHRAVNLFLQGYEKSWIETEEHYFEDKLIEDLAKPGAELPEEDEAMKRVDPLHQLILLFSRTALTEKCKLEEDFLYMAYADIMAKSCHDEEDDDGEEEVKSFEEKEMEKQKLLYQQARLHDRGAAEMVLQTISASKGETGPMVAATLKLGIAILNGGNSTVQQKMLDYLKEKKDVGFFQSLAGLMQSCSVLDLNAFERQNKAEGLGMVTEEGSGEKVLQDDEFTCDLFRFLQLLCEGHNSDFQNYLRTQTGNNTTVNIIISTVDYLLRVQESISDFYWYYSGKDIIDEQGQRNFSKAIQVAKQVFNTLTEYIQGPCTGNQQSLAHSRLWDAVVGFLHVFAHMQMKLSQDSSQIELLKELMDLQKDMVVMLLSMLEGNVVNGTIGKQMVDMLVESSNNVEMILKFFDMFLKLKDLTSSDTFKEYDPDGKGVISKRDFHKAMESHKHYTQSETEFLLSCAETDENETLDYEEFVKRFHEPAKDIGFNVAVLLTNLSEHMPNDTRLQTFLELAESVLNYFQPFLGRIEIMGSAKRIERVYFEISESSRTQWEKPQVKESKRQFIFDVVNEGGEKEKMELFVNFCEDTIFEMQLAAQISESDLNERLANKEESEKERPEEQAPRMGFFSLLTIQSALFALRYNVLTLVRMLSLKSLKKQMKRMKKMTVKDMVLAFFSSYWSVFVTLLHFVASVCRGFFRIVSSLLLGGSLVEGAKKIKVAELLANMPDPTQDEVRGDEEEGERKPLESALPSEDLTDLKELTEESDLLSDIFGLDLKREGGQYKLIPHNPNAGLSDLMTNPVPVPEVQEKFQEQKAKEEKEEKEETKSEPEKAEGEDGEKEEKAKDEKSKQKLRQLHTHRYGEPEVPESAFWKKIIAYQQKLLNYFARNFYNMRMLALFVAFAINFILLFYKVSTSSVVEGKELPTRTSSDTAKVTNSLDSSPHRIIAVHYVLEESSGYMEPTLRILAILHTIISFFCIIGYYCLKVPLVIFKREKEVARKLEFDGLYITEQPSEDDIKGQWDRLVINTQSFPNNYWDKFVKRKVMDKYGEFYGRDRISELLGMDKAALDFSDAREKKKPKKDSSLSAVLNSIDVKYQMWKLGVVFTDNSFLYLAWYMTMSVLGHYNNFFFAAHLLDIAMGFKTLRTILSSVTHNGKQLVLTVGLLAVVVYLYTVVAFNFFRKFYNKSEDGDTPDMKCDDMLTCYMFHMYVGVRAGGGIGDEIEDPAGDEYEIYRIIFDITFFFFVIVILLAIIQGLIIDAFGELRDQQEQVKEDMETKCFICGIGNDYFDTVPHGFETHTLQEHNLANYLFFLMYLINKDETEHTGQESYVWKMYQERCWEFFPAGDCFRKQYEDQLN
Protocol: FIGS. 3(A)-3(E) show a biological screen for cardiac ryanodine receptor (RyR2) activity. Note that ‘ent-24’=9, and ‘ent-18’ refers to structure 8 in FIG. 1, which is also the enantiomer of a natural product. (3A) Calcium spark frequency in permeabilized murine cardiomyocytes was recorded as an index of RyR2 activity. Compounds were screened at 25 uM concentration after 10-minute incubation. *=p<0.001 by one-way ANOVA with Tukey's post-hoc test. (3B) Incubation time was extended to 60 minutes for the 12- and 30-membered rings. (3C) The seco-acid precursors to 12- and 18-membered rings were tested at 25 uM. (3D) Concentration response curve for the 18-membered ring and (3E) 24-membered ring. Cells were incubated for 30 minutes
Activity of Ring-Size Analogues. […] Ventricular cardiomyocytes were isolated, permeabilized with saponin, and incubated with vehicle (DMSO) or 25 μM of selected compound. RyR2 activity was measured in the form of calcium sparks, which are elementary Ca^2+ release events generated by spontaneous openings of intracellular RyR2 Ca^2+ release channels. Importantly, saponin selectively permeabilizes the sarcolemmal membrane, leaving the SR membrane intact and ensuring equivalent access of the compounds to the SR membrane where RyR2 resides.
The compounds were first screened by incubating cardiomyocytes for 10 minutes at 25 μM concentration and compared to vehicle (DMSO) conditions.

[3] = cited from earlier work
RyR2 [4] = target: T2, RyR2 (Sus scrofa, UniProt A0A5G2R1W3); conditions: read-out: IC50, ryanodine binding assay (ent-1 comparison); cited from earlier work
T2 construct: isolated SR vesicles derived from porcine cardiac muscle; from tissue; host or cells: porcine heart (cardiac sarcoplasmic reticulum vesicles)

RyR2 [5] = target: T1, RyR2; conditions: read-out: IC50, intact cardiomyocyte assay (ent-1 comparison); cited from earlier work
Casq2-/- mice = conditions: cited from earlier work

Row | Substance | RyR2-mediated spontaneous calcium release [1] | potency of inhibition of mammalian cardiac ryanodine receptor calcium release channels [1] | RyR2-mediated Ca2+ spark frequency (RyR2 [2]; 25 μM, 10 minutes incubation, vs vehicle (DMSO)) | half-life of ent-1 ([3]; 3 mg/kg dose) | half-life of ent-1 ([3]; 30 mg/kg dose) | t1/2 of ent-1 ([3]; mice) | IC50 (RyR2 [4]) | IC50 (RyR2 [5]) | reduction in ventricular ectopy burden (ent-1) (Casq2-/- mice; 30 mg/kg, same arrhythmia induction protocol) | antiarrhythmic efficacy in vivo (ent-1) (Casq2-/- mice; single dose study, 3 and 30 mg/kg i.p., Casq2-/- mice) | activity in the calcium spark assay (summary statement) (RyR2 [2])
1 | (+)-ent-verticilide [ent-1] | significantly reduced | sub-micromolar potency | significantly inhibited | 6.9 h | 6.4 h | 6.92 h | 100 nM | 90 nM | 70% | antiarrhythmic efficacy | –
2 | (−)-nat-verticilide [reference compound] | no effect | – | – | – | – | – | – | – | – | – | none of these were active
